One block for each compound: values may come before it.
Columns and labels:
[1] = test system: G1 (DNA, G4) AGGGTTAGGGTTAGGGTTAGGG; experiment: CD melting at 295 nm; settings: 100 mM NaCl, 10 mM Li cacodylate, pH 7.3, 6 μM DNA
[2] = Precipitation on addition to DNA solution (CD melting conditions); assay type: physicochemical; settings: CD melting concentrations: dimeric salphen 6 μM, G1 6 μM or G2Tx 3 μM; 100 mM NaCl, 10 mM Li cacodylate, pH 7.3
Experimental: First, circular dichroism (CD) melting experiments were carried out with compounds D1–8 and their monomeric analogues M1–2 via the combination of DNA and compound in which the ratio of salphen units to G4 external tetrads was kept at a constant ratio of 2:1, i.e., [monomeric salphen] = 12 μM, [dimeric salphen] = 6 μM, [G1] = 6 μM, and [G2Tx] = 3 μM. The CD melting experiments were conducted solely with Na^+ stabilized DNA, which forms an antiparallel topology in solution (cf., in the presence of K^+ a mixture of topologies is observed). During the assay the temperature was increased from 25 to 95 °C upon which the intensity of signals with negative ellipticity at ca. 265 nm and positive ellipticity at ca. 295 (characteristic of an antiparallel G4 structure) decreased—see Figure 4a. This indicates the expected unfolding of the G4 DNA structure as the temperature increases. […] From these curves, the ΔTm values for the different sequences and compounds were determined, and the results are summarized in Figure 4c (see Supplementary Table 1 for values).
Experiments were carried out on a Jasco J-810 spectrophotometer using a 1 cm quartz cuvette. […] The signal at 295 nm was monitored as temperature was increased for 25 to 95 °C at a rate of 2 °C/min. […]

[3] = test system: human osteosarcoma U2OS cells
Experimental: Cytotoxicity studies of compounds were carried out on a U-2 OS cell line (human osteosarcoma cells). These cells were grown on culture medium McCoy’s 5A Medium supplemented with 10% FBS (Fetal Bovine Serum) in an atmosphere of 95% air and 5% CO2 at 37 °C. Inhibition of cell growth induced by the tested compound was evaluated using a MTT assay. The cells were seeded in a sterile 96-well plate at a density of 15,000 cells per well and incubated for 24 h in growth medium. Afterward, the compound dissolved in H2O or DMSO was added to the cells maintaining the same proportion of solvent in each well. After 48 h of incubation in an atmosphere of 95% air and 5% CO2 at 37 °C, 10 μL of 5 mg/mL MTT prepared in PBS (0.136 M NaCl, 1.47 mM KH2PO4, 8 mM NaH2PO4, and 2.68 mM KCl) was added to each well, and the cell plate was incubated for another 4 h. […] Finally, absorbance of the cell plate was measured at a wavelength of 595 nm (Tecan M1000 infinite Pro). […] The absorbance measurement range was assessed between one value (average of triplicate points) containing 15,000 cells in McCoy’s 5A medium and in the absence of growth factors (which allows to determine the stable cell concentration) and another value (average of triplicate points) containing the usual growth medium (which allows to measure the maximum cell growth at 48 h). […]

[4] = test system: G2T1 (Na+) dimeric HTelo G4 DNA; experiment: Emission titration with G2T1 (Na+); assay type: binding, human; settings: Table S2, unit not given, ligand 2 μM, 100 mM NaCl, 10 mM Li cacodylate, pH 7.3, exc 440 nm, em 590 nm, triplicate
Experimental: (§1) Next, emission titrations were carried out with the emissive Pt^II compounds M2 and D3–8 and G4/duplex DNA to obtain association constants. Both Na^+ and K^+ stabilized monomeric and dimeric G4 DNA were investigated. Additionally, titrations were carried out with CT-DNA to evaluate the selectivity for G4 versus duplex DNA. Figure 5 summarizes the obtained results (see Figures S24–S37 and Table S2 for a full set of titration data). First discussed are the experiments conducted in Na^+ buffer, in which the G4 topology formed is antiparallel.[41] […] As discussed previously, this could potentially be caused by a “sandwiched” binding mode in which the metal-salphen complex sits between two G-quadruplex units. For dimeric metal-salphen complexes D3–8, however, there are several differences when compared to the CD melting studies. […] Upon increasing the linker length to a two-amino-acid sequence (RR and KK for compounds D4 and D5, respectively), larger Ka values were obtained with minimal change to the pattern of selectivity. […] Increasing the linker length to an eight-amino-acid sequence (RRRRRRRR) led to a similar stabilization of G2T6, while G1 stabilization increased.
(§2) G-Quadruplex oligonucleotides were purchased from Eurogentec (Belgium), and CT-DNA was purchased from Sigma-Aldrich. Stock solutions were prepared via dilution in the appropriate buffers to concentrations of 300–400 μM determined by UV–vis measurements in which increasing amounts of DNA were added to a cuvette and the absorbance at 260 nm recorded using an Agilent Cary UV 60 spectrometer. Prior to use, the DNA stock solutions were annealed by heating at 95 °C for 5 min and then cooling to room temperature overnight.
(§3) Experiments were carried out using a BMG Clariostar Microplate reader with Greiner Bio-One half-volume (100 μL/well) plates. Excitation was carried out at 440 nm and recorded from 500 to 700 nm in addition to a matrix scan at 590 nm. Titrations were carried out using G1, G2T1, and G2T6 (Na^+) G4 DNA (100 mM NaCl, 10 mM Li cacodylate, pH 7.3); G1, G2T1, and G2T6 (K^+) G4 DNA (100 mM KCl, 10 mM Li cacodylate, pH 7.3); and CT-DNA (100 mM KCl, 10 mM Li cacodylate, pH 7.3). Ligand concentration was kept constant at 2 μM, and the following DNA equivalents were tested: 0, 0.1, 0.2, 0.3, 0.4, 0.5, 0.75, 1, 1.5, 2, 3, and 5 (for CT-DNA 10× base pair equivalents were used, i.e., 1 to 50 BPE). Sample preparation was carried out by preparing stock solutions of double concentration ligand (4 μM) and DNA in the appropriate buffer, before 50 μL of each was added to the appropriate well and mixed. Experiments were conducted in triplicate and binding constants were obtained by curve fitting in Graphpad Prism 8 using eq 1.[46] [drawing 1] 1
(§4) Fluorescence response (y) was fitted against DNA concentration (x); R is the machine response, K is the association constant of ligand and DNA, L is the concentration of ligand, and n is the number of binding sites per DNA. The values of L and n were varied so that that the L was equal to the number of salphen units and n was equal to the number of G4 faces per DNA. The matrix scan results were used to plot the titration curves and 500–700 nm scan results were used to confirm that expected curve shapes and shifts were observed.

[5] = test system: G2T6 (K+) dimeric HTelo G4 DNA; experiment: Emission titration with G2T6 (K+); assay type: binding, human; settings: Table S2, unit not given, ligand 2 μM, 100 mM KCl, 10 mM Li cacodylate, pH 7.3, exc 440 nm, em 590 nm, triplicate
Experimental: as §1, §2, §3, §4

[6] = test system: G1 (Na+) monomeric HTelo G4 DNA; experiment: Emission titration with G1 (Na+); assay type: binding, human; settings: Table S2, unit not given, ligand 2 μM, 100 mM NaCl, 10 mM Li cacodylate, pH 7.3, exc 440 nm, em 590 nm, triplicate
Experimental: as §1, §2, §3, §4

[7] = test system: G2T6 (Na+) dimeric HTelo G4 DNA; experiment: Emission titration with G2T6 (Na+); assay type: binding, human; settings: Table S2, unit not given, ligand 2 μM, 100 mM NaCl, 10 mM Li cacodylate, pH 7.3, exc 440 nm, em 590 nm, triplicate
Experimental: as §1, §2, §3, §4

[8] = test system: G2T1 (K+) dimeric HTelo G4 DNA; experiment: Emission titration with G2T1 (K+); assay type: binding, human; settings: Table S2, unit not given, ligand 2 μM, 100 mM KCl, 10 mM Li cacodylate, pH 7.3, exc 440 nm, em 590 nm, triplicate
Experimental: as §1, §2, §3, §4

[9] = test system: G1 (K+) monomeric HTelo G4 DNA; experiment: Emission titration with G1 (K+); assay type: binding, human; settings: Table S2, unit not given, ligand 2 μM, 100 mM KCl, 10 mM Li cacodylate, pH 7.3, exc 440 nm, em 590 nm, triplicate
Experimental: as §1, §2, §3, §4

[10] = test system: G2T6 (DNA, G4) AGGGTTAGGGTTAGGGTTAGGGTTATTATTATTATTATTAGGGTTAGGGTTAGGGTTAGGG; experiment: CD melting at 295 nm; settings: 100 mM NaCl; 10 mM Li cacodylate, pH 7.3; 6 μM compound (12 μM salphen units), 3 μM DNA

ΔTm ([1]; 6 μM compound (12 μM salphen units)): 5.5 °C
Compound: C[N+](C)(C)CCOc1ccc(C=Nc2ccc(C(=O)NCc3cn(CC(=O)N[C@@H](CCCCN)C(=O)N[C@@H](CCCCN)C(=O)N[C@@H](Cn4cc(CNC(=O)c5ccc(N=Cc6ccc(OCC[N+](C)(C)C)cc6[O-])c(N=Cc6ccc(OCC[N+](C)(C)C)cc6[O-])c5)nn4)C(N)=O)nn3)cc2N=Cc2ccc(OCC[N+](C)(C)C)cc2[O-])c([O-])c1.[Pt+2].[Pt+2]

IC50 [3]: 43 µM
Compound: RRRRRRRR [Compound D8]
precipitation on addition to the DNA solution [2]: caused precipitation | Association constant G2T1 (Na+), mean [4]: 0.31 | Association constant G2T6 (K+), mean [5]: 0.38 | Association constant G1 (Na+), mean [6]: 0.47 | Association constant G2T6 (Na+), mean [7]: 0.75 | Association constant G2T1 (K+), mean [8]: 0.22 | Association constant G1 (K+), mean [9]: 0.84

ΔTm [10]: 6.4 °C | ΔTm ([1]; 6 μM compound, b22 states 1.1–1.5 °C for D1–4): 3.0 °C
Compound: C[N+](C)(C)CCOc1ccc(C=Nc2ccc(C(=O)NCc3cn(CCOCCn4cc(CNC(=O)c5ccc(N=Cc6ccc(OCC[N+](C)(C)C)cc6[O-])c(N=Cc6ccc(OCC[N+](C)(C)C)cc6[O-])c5)nn4)nn3)cc2N=Cc2ccc(OCC[N+](C)(C)C)cc2[O-])c([O-])c1.[Pt+2].[Pt+2]

— PMC10197068 (Bioconjugate Chemistry, 2023)
